This is an account of results in PubChem BioAssay (NCI).

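1) Cells in 96-well plates. 2) Compound, 48 h, 5 concentrations. 3) Linear interpolation between surrounding doses. 4) Unreached endpoint = highest concentration. GI50 marks 50% less growth. TGI is the concentration that stops growth completely.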

Among the test systems are SW-620 colon; EKVX NSCLC; OVCAR-8 ovarian; COLO 205 colon; HCT-116 colon; OVCAR-3 ovarian; OVCAR-4 ovarian; MOLT-4 leukemia; SK-MEL-2 melanoma; SNB-75 CNS.
Common to all, as to test: NCI-60 cell line screen, 48 h

In the case of `COc1cc([C@@H]2c3cc4c(cc3[C@H](SC(=N)N)[C@H]3COC(=O)[C@H]23)OCO4)cc(OC)c1OC`, the GI50 is 0.265 µM in the assay with SW-620 colon; 0.291 µM in the assay with EKVX NSCLC; 0.348 µM in the assay with OVCAR-8 ovarian; 0.198 µM in the assay on COLO 205 colon; 0.197 µM in the assay with HCT-116 colon; 0.0767 µM with OVCAR-3 ovarian. For the same molecule, the GI50 was 0.683 µM in the assay with OVCAR-4 ovarian, 0.382 µM in the assay with MOLT-4 leukemia, 5.78 µM with SK-MEL-2 melanoma and 0.477 µM in the assay with SNB-75 CNS. Also, the TGI in the assay on SW-620 colon was more than 100 µM; in the assay with EKVX NSCLC, more than 100 µM; in the assay on OVCAR-8 ovarian, more than 100 µM; with COLO 205 colon it was 0.422 µM; with HCT-116 colon it was more than 100 µM; with OVCAR-3 ovarian, 0.35 µM. In addition, the TGI in the assay with OVCAR-4 ovarian, in the assay on MOLT-4 leukemia, with SK-MEL-2 melanoma and in the assay with SNB-75 CNS was more than 100 µM throughout.
As for `NC1=NC(c2ccccc2Cl)c2c(n[nH]c2N)N1` (stereo unspecified), the GI50 with SW-620 colon is 18.9 µM; with EKVX NSCLC it was 44.2 µM; with OVCAR-8 ovarian, 45.6 µM; in the assay with COLO 205 colon, 23.9 µM; in the assay with HCT-116 colon, 7.77 µM; in the assay with OVCAR-3 ovarian, 32.1 µM. The GI50 with OVCAR-4 ovarian was more than 100 µM; in the assay on MOLT-4 leukemia, 22.5 µM; in the assay with SK-MEL-2 melanoma it was 65.3 µM; with SNB-75 CNS it was 48 µM. Also, the TGI in the assay with SW-620 colon, with EKVX NSCLC, in the assay on OVCAR-8 ovarian, in the assay with COLO 205 colon, with HCT-116 colon and with OVCAR-3 ovarian was more than 100 µM each time. The TGI in the assay with OVCAR-4 ovarian, in the assay on MOLT-4 leukemia, with SK-MEL-2 melanoma and with SNB-75 CNS was more than 100 µM each time.
With `Nc1ncnc2c1c(-c1ccc(Oc3ccccc3)cc1)nn2CC1SSCC1O` (stereo unspecified), the GI50 in the assay on SW-620 colon was 1.58 µM; in the assay on EKVX NSCLC, 1.04 µM; in the assay on OVCAR-8 ovarian, 7.51 µM; in the assay on COLO 205 colon it was 1.25 µM; in the assay on HCT-116 colon, 0.59 µM; in the assay with OVCAR-3 ovarian, 0.659 µM. Further, the GI50 in the assay with OVCAR-4 ovarian is 2.2 µM; in the assay with MOLT-4 leukemia, 0.124 µM; with SK-MEL-2 melanoma, 0.825 µM; with SNB-75 CNS it was 5.79 µM. The TGI turned out to be 32.5 µM in the assay with SW-620 colon; 6.25 µM in the assay on EKVX NSCLC; 23.3 µM with OVCAR-8 ovarian; 5.5 µM in the assay on COLO 205 colon; 4.65 µM with HCT-116 colon; 1.62 µM with OVCAR-3 ovarian. The TGI came to 22.1 µM with OVCAR-4 ovarian, 0.621 µM in the assay on MOLT-4 leukemia, 2.15 µM in the assay with SK-MEL-2 melanoma and 14.9 µM in the assay on SNB-75 CNS.
Turning to `Cc1nc2ccncc2[nH]1`, the TGI with SW-620 colon, in the assay with EKVX NSCLC, in the assay with OVCAR-8 ovarian, in the assay with COLO 205 colon, in the assay on HCT-116 colon and with OVCAR-3 ovarian was more than 100 µM each time. In addition, the TGI in the assay on OVCAR-4 ovarian, with MOLT-4 leukemia, in the assay on SK-MEL-2 melanoma and in the assay with SNB-75 CNS was more than 100 µM each time.
On to `OC1=CN=C(c2ccccc2)Oc2ccccc21`, for which the TGI with SW-620 colon, with EKVX NSCLC, in the assay on OVCAR-8 ovarian, with COLO 205 colon, in the assay with HCT-116 colon and in the assay with OVCAR-3 ovarian was more than 100 µM in each case. In addition, the TGI with OVCAR-4 ovarian, with MOLT-4 leukemia, in the assay on SK-MEL-2 melanoma and in the assay with SNB-75 CNS was more than 100 µM throughout.
In the case of `CN1CCCc2nc3ccccc3n2C1`, the TGI in the assay on SW-620 colon, in the assay with EKVX NSCLC, in the assay on OVCAR-8 ovarian, in the assay on COLO 205 colon, with HCT-116 colon and in the assay on OVCAR-3 ovarian was more than 100 µM in each case. Besides, the TGI in the assay on OVCAR-4 ovarian, in the assay on MOLT-4 leukemia, in the assay on SK-MEL-2 melanoma and with SNB-75 CNS was more than 100 µM in each case.
Take `O=[N+]([O-])c1cccnc1S(=O)(=O)c1ccccc1`: the TGI is 8.38 µM with SW-620 colon; 14.5 µM in the assay with EKVX NSCLC; 26.8 µM with OVCAR-8 ovarian; 11 µM in the assay with COLO 205 colon; 21.6 µM in the assay with HCT-116 colon; 3.84 µM in the assay with OVCAR-3 ovarian. The TGI in the assay on OVCAR-4 ovarian is 17.1 µM; in the assay with MOLT-4 leukemia, more than 25.7 µM; with SK-MEL-2 melanoma, 31.1 µM; with SNB-75 CNS, 35.9 µM.
On to `C/C(=N\NC(=S)N1CCC1)c1ccccn1`, for which the GI50 in the assay with SW-620 colon is 0.0367 µM; in the assay with OVCAR-8 ovarian, 0.00715 µM; in the assay with COLO 205 colon, 0.00486 µM; in the assay with HCT-116 colon, 0.00278 µM; with OVCAR-3 ovarian, 0.00157 µM; in the assay on OVCAR-4 ovarian, 0.00312 µM. Moreover, in the assay on MOLT-4 leukemia, the GI50 was 0.00601 µM. The TGI in the assay with SW-620 colon was more than 100 µM; with EKVX NSCLC, 48.6 µM; in the assay with OVCAR-8 ovarian it was 12 µM; in the assay with COLO 205 colon it was more than 100 µM; in the assay with HCT-116 colon it was 52.2 µM; with OVCAR-4 ovarian, more than 56.7 µM. Moreover, the values for the TGI with MOLT-4 leukemia, in the assay on SK-MEL-2 melanoma and in the assay on SNB-75 CNS were more than 10.5 µM, 33.3 µM and more than 29.9 µM, respectively.
Consider `CN(C)CCNC(=O)Nc1ccc(N(C)c2ccnc(Nc3ccc(CS(C)(=O)=O)cc3)n2)cc1`, for which the GI50 in the assay with SW-620 colon, with EKVX NSCLC, in the assay with OVCAR-8 ovarian, with COLO 205 colon, with HCT-116 colon and in the assay with OVCAR-3 ovarian was more than 25 µM in each case. Moreover, the GI50 with OVCAR-4 ovarian was more than 25 µM; in the assay on MOLT-4 leukemia it was more than 25 µM; in the assay on SK-MEL-2 melanoma it was more than 25 µM; in the assay with SNB-75 CNS, more than 12.7 µM. Besides, the TGI with SW-620 colon, in the assay with EKVX NSCLC, with OVCAR-8 ovarian, in the assay on COLO 205 colon, with HCT-116 colon and in the assay on OVCAR-3 ovarian was more than 25 µM in each case. Also, the TGI in the assay with OVCAR-4 ovarian, in the assay with MOLT-4 leukemia, in the assay with SK-MEL-2 melanoma and with SNB-75 CNS was more than 25 µM each time.
